US8461305B2, “L-fucose α1→6 specific lectin” (J-Oil Mills, Inc., priority 2008, dated 2013)

Assays:
[1] = hemagglutinating inhibition test with sugars (sugar binding specificity); format: cell-based
Source text: The sugar binding specificity of lectin also can be confirmed by using erythrocytes that can be specifically agglutinated by the lectin to investigate the sugar type that may inhibit the agglutination of the erythrocytes and the concentration thereof.
Various monosaccharides, oligosaccharides, and polysaccharides shown in Table 2 and glycoproteins shown in Table 3 were subjected to hemagglutinating inhibition test to evaluate PTL of Example 1 and the SRL of Example 2 with regard to the sugar binding specificity.
On a 96 well U-bottom microtiter plate, double dilution series of 10 μl of monosaccharide, oligosaccharide, polysaccharide, and glycoprotein solutions were prepared. Then, lectin solution adjusted in advance to have titer 4 was added in an amount of 10 μl to the respective wells. Then, the plate was subjected to a still-standing at a room temperature for one hour for sensitization. Then, 10 μl of 4%-red blood cell suspension was added to the respective wells and the plate was further subjected to a still-standing at a room temperature for one hour. […] The lowest concentration showing the inhibition was assumed as the minimum inhibition concentration. The lower the minimum inhibition concentration is, the higher the specificity to lectin is.
For comparison, the sugar binding specificity was evaluated using the following commercially-available lectins: Comparison Example 1: AAL (SEIKAGAKU BIOBUSINESS CORPORATION—J-OIL MILLS, Inc.), Comparison Example 2: AOL (TOKYO CHEMICAL INDUSTRY CO., LTD.—Gekkeikan Sake Company, Ltd.), Comparison Example 3: LCA (SEIKAGAKU BIOBUSINESS CORPORATION—J-OIL MILLS, Inc.), and Comparison Example 4: PSA (SEIKAGAKU BIOBUSINESS CORPORATION—J-OIL MILLS, Inc.).

[2] = frontal affinity chromatography (FAC), association constant to PA sugar chains having other L-fucose; format: binding; settings: for association constant Ka: 25 degrees C.
Experimental: The following section will describe a method of calculating an association constant by frontal affinity chromatography (FAC). This method is based on the following principle. […] Then, the elution front end (front) is observed immediately. When there is an affinity with lectin, the elution of the sugar chain is delayed.
The preparation of a lectin column used in the apparatus is performed in the method as described below. 1. Purified lectin is dissolved in 0.1 to 0.2M of NaHCO3 buffer solution (pH 8.3 to 8.5). 2. The lectin is immobilized, via a lectin primary amino group, a carrier such as NHS activated sepharose. 3. Then, the lectin is blocked by Tris buffer solution including primary amine or ethanolamine for example. 4. Lectin-sepharose is suspended in 10 mM Tris buffer, including 0.8% of NaCl (pH 7.4, TBS). Then, lectin immobilized resin is filled in a miniature column (φ2 mm×10 mm, 31.4 μl). 5. The miniature column in which the lectin immobilized resin is filled is protected by a holder and the lectin column is connected to an FAC automatic analysis apparatus (FAC-1, SHIMADZU CORPORATION).
Then, the elution of the PA sugar chain from the column is detected by a fluorescence detector (excitation wavelength/fluorescence wavelength: 310 nm/380 nm).
Based on the detection data, by using the elution front end (Vo) of the sugar chain (PA rhamnose) not interacting with lectin as a reference, the delay (V−Vo) of the elution front end (V) of a sugar chain interacting with lectin is calculated as an interaction strength. Then, based on the following FAC criteria expressions, the association constant (Ka) between the sugar chain and lectin is calculated based on V−Vo and Bt. If the interaction strength (V−Vo value) and the association constant are higher, a higher affinity is caused between lectin and an L-fucose α1→6 sugar chain.
[In the formula, A means substance used for the elution, Ao means the initial concentration of the substance A, B means a immobilized ligand, V means the elution volume, Vo means the elution front end volume of the substance not interacting with the immobilized ligand B at all, Bt means an effective ligand amount, Kd means a dissociation constant (an inverse of the association constant)].
Pyridylaminated (PA) sugar chains shown in FIG. 1 and FIG. 2 were used to frontal affinity chromatography (FAC) analysis. PA sugars were purchased from TAKARA BIO INC., SEIKAGAKU BIOBUSINESS CORPORATION, and Masuda Chemical Industries co., LTD. PA sugar were also obtained by pyridylaminating, by GlycoTAG®(TAKARA BIO INC.), an unlabeled sugar chain or a sugar chain obtained by subjecting a sugar chain to enzyme digestion for example.
Lectin was dissolved in 0.2 M NaHCO3 buffer solution (pH 8.3) including 0.5 M NaCl and coupled to the NHS-activated sepharose (GE Healthcare Bioscience) by following the manufacturer's instructions. Then, lectin immobilized sepharose was suspended in 10 mM Tris buffer (pH 7.4, TBS) including […] and the resultant matter was filled in a miniature column (φ2 mm×10 mm, 31.4 μl).
Frontal affinity chromatography was performed using FAC automatic analysis apparatus (FAC-1, SHIMADZU CORPORATION). In particular, the above-prepared lectin column was inserted to a stainless steel holder and the holder was connected to FAC-1 apparatus. The flow rate and the column temperature were maintained at 0.125 ml/min and 25 degrees C., respectively. After the miniature column was equilibrated by the TBS, an excessive volume (0.5 ml to 4 ml) of a PA sugar chain (3.75 nM or 7.5 nM) was continuously inputted to the column using an automatic sampling apparatus.
The fluorescent strength of the eluate of the PA sugar (excitation wavelength of 310 nm and fluorescence wavelength of 380 nm) was monitored to measure the interaction strength [a difference of the front end eluate to the standard oligosaccharide (PA rhamnose): V−V0]. […]

[3] = inhibitor: N-Acetylneuraminic acid
[4] = inhibitor: N-acetylgalactosamine
[5] = inhibitor: N-glycolylneuraminic acid
[6] = Sugar chain No. 728 (as listed in Table 5/12)

| Substance | minimum inhibition concentration of hemagglutination ([1]; inhibitor: Fructose) [mM] | minimum inhibition concentration of hemagglutination ([1]; inhibitor: Galactose) [mM] | minimum inhibition concentration of hemagglutination ([1]; inhibitor: Glucose) [mM] | minimum inhibition concentration of hemagglutination ([1]; inhibitor: L-fucose) [mM] | minimum inhibition concentration of hemagglutination ([1]; inhibitor: Lactose) [mM] | minimum inhibition concentration of hemagglutination ([1]; inhibitor: Maltose) [mM] | minimum inhibition concentration of hemagglutination ([1]; inhibitor: Mannose) [mM] | minimum inhibition concentration of hemagglutination ([1]; inhibitor: Melibiose) [mM] | minimum inhibition concentration of hemagglutination ([1]; inhibitor: Metyl α-mannoside) [mM] | minimum inhibition concentration of hemagglutination [1, 3] [mM] | minimum inhibition concentration of hemagglutination [1, 4] [mM] | minimum inhibition concentration of hemagglutination ([1]; inhibitor: N-acetylglucosamine) [mM] | minimum inhibition concentration of hemagglutination [1, 5] [mM] | minimum inhibition concentration of hemagglutination ([1]; inhibitor: Raffinose) [mM] | minimum inhibition concentration of hemagglutination ([1]; inhibitor: Rhamnose) [mM] | minimum inhibition concentration of hemagglutination ([1]; inhibitor: Serial lactose) [mM] | minimum inhibition concentration of hemagglutination ([1]; inhibitor: Sucrose) [mM] | minimum inhibition concentration of hemagglutination ([1]; inhibitor: Xylose) [mM] | association constant Ka ([2]; Sugar chain No. 419) [M⁻¹] | association constant Ka ([2]; Sugar chain No. 420) [M⁻¹] | also measured |
| --- | --- | --- | --- | --- | --- | --- | --- | --- | --- | --- | --- | --- | --- | --- | --- | --- | --- | --- | --- | --- | --- |
| Pholiota terrestris lectin [PTL, novel L-fucose α1→6 specific lectin purified from the mushroom Pholiota terrestris] | >100 | >100 | >100 | >100 | >6 | >100 | >100 | >100 | >100 | >100 | >100 | >100 | >100 | >100 | >100 | >6 | >100 | >100 | <1000 | <1000 | binding to non-L-fucose α1→6 sugar chain ([2]; FAC): not bound; association constant Ka ([2]; Sugar chain No. 718): <1000 M⁻¹; association constant Ka ([2]; Sugar chain No. 719): <1000 M⁻¹; association constant Ka ([2]; Sugar chain No. 720): <1000 M⁻¹; association constant Ka ([2]; Sugar chain No. 721): <1000 M⁻¹; association constant Ka ([2]; Sugar chain No. 722): <1000 M⁻¹; association constant Ka ([2]; Sugar chain No. 723): <1000 M⁻¹; association constant Ka ([2]; Sugar chain No. 726): <1000 M⁻¹; association constant Ka ([2]; Sugar chain No. 727): <1000 M⁻¹; association constant Ka [2, 6]: <1000 M⁻¹; association constant Ka ([2]; Sugar chain No. 729): <1000 M⁻¹; association constant Ka ([2]; Sugar chain No. 730): <1000 M⁻¹; association constant Ka ([2]; Sugar chain No. 731): <1000 M⁻¹; association constant Ka ([2]; Sugar chain No. 739): <1000 M⁻¹; association constant Ka ([2]; Sugar chain No. 909): <1000 M⁻¹; association constant Ka ([2]; Sugar chain No. 910): <1000 M⁻¹; association constant Ka ([2]; Sugar chain No. 931): <1000 M⁻¹; association constant Ka ([2]; Sugar chain No. 932): <1000 M⁻¹; association constant Ka ([2]; Sugar chain No. 933): <1000 M⁻¹ |
| Aspergillus oryzae lectin [AOL, reference compound] | 25 | >100 | >100 | 0.391 | >6 | >100 | 100 | >100 | >100 | >100 | >100 | >100 | >100 | >100 | 100 | >6 | >100 | >100 | <1000 | <1000 | association constant Ka ([2]; Sugar chain No. 718): 170000 M⁻¹; association constant Ka ([2]; Sugar chain No. 719): <1000 M⁻¹; association constant Ka ([2]; Sugar chain No. 720): <1000 M⁻¹; association constant Ka ([2]; Sugar chain No. 721): <1000 M⁻¹; association constant Ka ([2]; Sugar chain No. 722): 56000 M⁻¹; association constant Ka ([2]; Sugar chain No. 723): <1000 M⁻¹; association constant Ka ([2]; Sugar chain No. 726): <1000 M⁻¹; association constant Ka ([2]; Sugar chain No. 727): 76000 M⁻¹; association constant Ka [2, 6]: 12000 M⁻¹; association constant Ka ([2]; Sugar chain No. 729): <1000 M⁻¹; association constant Ka ([2]; Sugar chain No. 730): <1000 M⁻¹; association constant Ka ([2]; Sugar chain No. 731): <1000 M⁻¹; association constant Ka ([2]; Sugar chain No. 739): <1000 M⁻¹; association constant Ka ([2]; Sugar chain No. 909): 44000 M⁻¹; association constant Ka ([2]; Sugar chain No. 910): 56000 M⁻¹; association constant Ka ([2]; Sugar chain No. 931): 99000 M⁻¹; association constant Ka ([2]; Sugar chain No. 932): <1000 M⁻¹; association constant Ka ([2]; Sugar chain No. 933): 31000 M⁻¹ |
